From article PMC8041276 (ACS Chemical Neuroscience, 2021) come the findings set out here.

In series [1] the target is T1, 5-HT7R (Homo sapiens, UniProt P34969).
T1 construct: expressed in transfected cells
Put plainly: [3H]-5-CT radioligand binding assay, HEK293 cells. As to conditions: mean of three experiments. How it is done:
(§1) All experiments were carried out according to the previously published procedures.[41]−[43] HEK293 cells stably expressing human 5-HT1A, 5-HT6, 5-HT7b, and D2L receptors (prepared with the use of Lipofectamine 2000) or CHO-K1 cells with plasmid containing the sequence coding for the human serotonin 5-HT2A receptor (PerkinElmer) were maintained at 37 °C in a humidified atmosphere containing 5% CO2 and grown in Dulbecco’s modified Eagle’s medium containing 10% dialyzed fetal bovine serum and 500 μg/mL G418 sulfate. For membrane preparation, cells were cultured in 150 cm^2 flasks, grown to 90% confluence, washed twice with prewarmed to 37 °C phosphate buffered saline (PBS), and centrifuged (200g) in PBS containing 0.1 mM EDTA and 1 mM dithiothreitol. Prior to membrane preparation, pellets were stored at −80 °C. Cell pellets were thawed and homogenized in 10 volumes of assay buffer using an Ultra Turrax tissue homogenizer and centrifuged twice at 35 000g for 15 min at 4 °C, with incubation for 15 min at 37 °C between the centrifugations. The composition of the assay buffers was experimentally selected to achieve the maximum signal window (more details in Supporting Information). All assays were carried out in a total volume of 200 μL in 96-well plates for 1 h at 37 °C except 5-HT1AR and 5-HT2AR which were incubated at room temperature and 27 °C, respectively. The process of equilibration was terminated by rapid filtration through Unifilter plates with a 96-well cell harvester, and radioactivity retained on the filters was quantified on a Microbeta plate reader (PerkinElmer, USA). For displacement studies the assay samples contained the following as radioligands (PerkinElmer, USA): 2.5 nM [^3H]-8-OH-DPAT (135.2 Ci/mmol) for 5-HT1AR; 1 nM [^3H]-ketanserin (53.4 Ci/mmol) for 5-HT2AR; 2 nM [^3H]-LSD (83.6 Ci/mmol) for 5-HT6R; 0.8 nM [^3H]-5-CT (39.2 Ci/mmol) for 5-HT7R or 2.5 nM [^3H]-raclopride (76.0 Ci/mmol) for D2LR. Nonspecific binding was defined in the presence of 10 μM 5-HT in 5-HT1AR and 5-HT7R binding experiments, whereas 20 μM mianserin, 10 μM methiothepine, and 10 μM haloperidol were used in 5-HT2AR, 5-HT6R, and D2LR assays, respectively. Each compound was tested in triplicate at seven concentrations (10^–10–10^–4 M). The inhibition constants (Ki) were calculated from the Cheng–Prusoff equation.[44]

The target of series [2] is T2, D2R (Homo sapiens, UniProt P14416).
T2 construct: expressed in transfected cells
Put plainly: [3H]-raclopride radioligand binding assay, HEK293 cells. As to conditions: mean of three experiments. Here is the method: as §1

Series [3] can be described thus: In vivo pharmacokinetic study, plasma and brain. As to conditions: male, Wistar, po, rat; for AUC(0-t) / Cmax / MRT / Tmax / half-life: 10 mg/kg p.o.; for half-life: read-out: t0.5 (terminal half-life). The arrangement: species or system male Wistar rats. How it is done: Subsequently, the pharmacokinetic profile of 27 and 28 was assessed in male Wistar rats after single intragastric administration at the dose of 10 mg/kg. The studied compounds were rapidly absorbed and crossed the blood–brain barrier, reaching the Cmax in 5 min in both plasma and brain.
For LC–MS/MS analyses, an HPLC Nexera system (Shimadzu, Kyoto, Japan) combined with the triple quadrupole API 3200 mass spectrometer (SCIEX, Framingham, MA, USA) interfaced via an electrospray source and controlled by Analyst software version 1.5.2 (SCIEX, Framingham, MA, USA) was applied.
The chromatographic separation was performed on Acclaim Polar Advantage II (3.0 mm × 74 mm, 3 μm, 120A, Dionex, USA) analytical column using the mobile phase composed of eluent A, HPLC grade acetonitrile acidified with 0.1% (v/v) formic acid, and eluent B, HPLC grade water with 0.1% (v/v) formic acid. The elution gradient started with 90% of eluent B, increasing to 90% of eluent A over 5 min, returned to 90% of eluent B over 5 min, and maintained at 90% of eluent B for 5 min. The mobile phase flow rate was set at 400 μL/min. The injection volume was 20 μL, and the total time of analysis was 15 min. The temperatures of the column thermostat and the autosampler were set at 40 and 10 °C, respectively.
For increased sensitivity and selectivity, the MS/MS data acquisition was performed in the selected reaction monitoring (SRM) mode. The ions measured were m/z 585.1 (Q1) and m/z 516.2 (Q3) for compounds 27 and 28 and m/z 305 (Q1) and m/z 248 (Q3) for IS. The quantification was done via peak area ratio.
Protein precipitation with acetonitrile was used for purification of plasma and brain homogenates. The whole brain was homogenized using an electric tissue homogenizer in an appropriate amount of phosphate buffer (pH 7.4) in 1:2.5 ratio. Thereafter, a volume of 100 μL of plasma or brain homogenate was transferred to 2 mL Eppendorf tubes, and a 5 μL aliquot of the internal standard (IS, PH002437, Merck, Darmstadt, Germany) in working solution (5 μg/mL) was added and vortex-mixed for 10 s. Thereafter, 200 μL of acetonitrile was added and mixed for 20 min, followed by centrifugation (28 672g) for 10 min at 4 °C. The supernatant was transferred to chromatographic vials, and 20 μL was injected into the analytical column.
A group of 64 male, 8-week-old, Wistar strain outbred rats weighing between 200 and 220 g each were purchased from the Animal House at the Faculty of Pharmacy, Jagiellonian University Medical College, Krakow (Poland) and housed in standard polycarbonate cages, in groups of four animals per cage. Environmental conditions during the study were constant: relative humidity 50–60%, temperature 22 ± 2 °C, normal 12 h light–dark cycle (7 a.m. to 7 p.m. light). Standard rodent chow and water were available ad libitum. Compounds 27 and 28 were dissolved in saline and administered by intragastric gavage at a dose of 10 mg/kg, and the animals were sacrificed at specific time-points: 0 min, predose (n = 4), 5 min (n = 4), 15 min (n = 4), 30 min (n = 4), 60 min (n = 4), 120 min (n = 4), 240 min (n = 4), and 480 min (n = 4) after administration. Animals were deeply anaesthetized by ip injections of 50 mg/kg ketamine plus 8 mg/kg xylazine before sacrifice. First, the blood was collected into heparinized tubes, and the blood samples were centrifuged at 1000g for 10 min to obtain plasma. Following the animals’ euthanasia, the whole brain was collected. The plasma and brain samples were immediately frozen at −80 °C for future analysis. All experimental procedures were carried out in accordance with EU Directive 2010/63/EU and approved by the I Local Ethics Committee for Experiments on Animals of the Jagiellonian University in Krakow, Poland (No. 83/2018).

Like-named read-outs stand apart in the source and are kept apart here.

T2 sequence (P14416 whole entry): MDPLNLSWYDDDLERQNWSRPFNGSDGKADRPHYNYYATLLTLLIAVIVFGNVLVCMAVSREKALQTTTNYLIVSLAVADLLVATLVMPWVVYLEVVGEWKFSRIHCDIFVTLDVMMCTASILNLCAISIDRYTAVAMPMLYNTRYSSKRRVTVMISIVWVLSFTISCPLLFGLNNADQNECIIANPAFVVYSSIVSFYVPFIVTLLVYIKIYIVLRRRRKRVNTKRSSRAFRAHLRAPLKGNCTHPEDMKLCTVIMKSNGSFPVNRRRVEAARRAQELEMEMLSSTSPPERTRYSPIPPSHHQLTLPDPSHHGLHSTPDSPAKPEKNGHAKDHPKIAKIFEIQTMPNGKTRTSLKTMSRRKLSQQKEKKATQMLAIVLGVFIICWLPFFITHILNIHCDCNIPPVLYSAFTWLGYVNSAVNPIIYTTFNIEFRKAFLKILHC
T1 sequence (P34969 1-432): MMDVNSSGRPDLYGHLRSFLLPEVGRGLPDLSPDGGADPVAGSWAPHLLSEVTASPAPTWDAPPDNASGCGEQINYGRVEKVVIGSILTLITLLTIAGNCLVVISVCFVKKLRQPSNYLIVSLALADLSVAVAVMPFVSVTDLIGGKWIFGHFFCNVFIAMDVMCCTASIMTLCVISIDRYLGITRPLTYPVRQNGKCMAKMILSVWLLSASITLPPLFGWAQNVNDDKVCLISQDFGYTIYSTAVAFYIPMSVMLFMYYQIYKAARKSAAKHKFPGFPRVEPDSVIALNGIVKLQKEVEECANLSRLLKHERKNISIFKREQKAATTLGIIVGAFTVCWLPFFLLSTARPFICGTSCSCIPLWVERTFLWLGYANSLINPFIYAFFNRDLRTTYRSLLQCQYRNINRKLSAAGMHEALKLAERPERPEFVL

As for `O=C(N[C@@H]1CCNC1)c1ccn(S(=O)(=O)c2cccc(Cl)c2)c1-c1ccc(F)cc1` [Compound 27, (R)-2-(4-Fluorophenyl)-1-[(3-chlorophenyl)sulfonyl]-N-(pyrrolidin-3-yl)-1H-pyrrole-3-carboxamide], the affinity in series [1] corresponds to a Ki of 42 µM. For the same compound, the inhibition constant Ki (in general, the equilibrium dissociation constant of an inhibitor or competing ligand from its target) in series [2] turned out to be 7.08 µM. The Kp in series [3] (brain/plasma, 10 mg/kg intragastric, read-out: brain/plasma ratio) is 0.63. In series [3] (brain), the AUC(0-t) (in general, exposure summed from dosing to a finite time, without extrapolation to infinity) was 812 ng·h/mL; the Cmax – broadly, the highest concentration seen after dosing – is 427 ng/g; the mean residence time (MRT) (usually the average time that molecules of a dose stay in the body) is 3.02 h; the Tmax (commonly the time at which the peak concentration occurs) is 5 min. For the same compound, in series [3] (brain), the half-life (commonly the time needed for the level to fall by half in the phase considered) was found to be 4.18 h. Besides, in series [3] (plasma), the area under the curve AUC(0-t) is 1290 ng·h/mL, the concentration peaked (Cmax) at 1040 ng/mL, the mean residence time (MRT) is 2.72 h and the time to peak (Tmax) was 5 min. Further, the half-life in series [3] (plasma) was 1.96 h.
`O=C(N[C@H]1CCNC1)c1ccn(S(=O)(=O)c2cccc(Cl)c2)c1-c1ccc(F)cc1` [Compound 28, (S)-2-(4-Fluorophenyl)-1-[(3-chlorophenyl)sulfonyl]-N-(pyrrolidin-3-yl)-1H-pyrrole-3-carboxamide] came in with an inhibitory constant (Ki) in series [1] of 3.53 µM. Besides, the affinity in series [2], expressed as Ki, was 7.34 µM. For the same compound, in series [3] (brain), the exposure AUC(0-t) was 289 ng·h/mL, the concentration peaked (Cmax) at 51.7 ng/g, the mean residence time MRT was 4.43 h and the Tmax is 5 min. In series [3] (plasma), the exposure AUC(0-t) was 3390 ng·h/mL, the highest level (Cmax) was 3500 ng/mL, the MRT was 3.35 h and the time to peak (Tmax) was 5 min. Also, in series [3] (plasma), the half-life is 4.95 h.
